Experiment: amounts of β-lactam antibiotic, β-lactamase inhibitor (C18 reverse-phase LC, UV-VIS) and aminoglycoside (HPLC-ELSD) in solution over time
Type: physicochemical
Method: The amounts of β-lactam antibiotics and β-lactamase inhibitor were determined using C18 reverse-phase LC and UV-VIS detector (Tianjin Hemay BioTech Co., Ltd., analysis method No. HM-K-03). The content of aminoglycoside antibiotics was measured using reverse-phase HPLC and evaporation-light-scattering detector (ELSD detector) (Tianjin Hemay BioTech Co., Ltd., analysis method No. HM-K-08). The amount of antibiotic component at each time point was expressed as a percentage with respect to the amount at the initial time (herein defined as 100%). The relative amount of each antibiotic component in the composition at each time point was expressed as peak area ratio with respect to the corresponding peak area of an external standard.

amount of component as percentage with respect to the amount at the initial time (Example 4: cefoperazone sodium 4 g, sulbactam sodium 0.5 g, gentamicin 80 mg, citrate pH 6.75, 200 mL water, room temperature, Time 0 h): 101.4%
amount of component as percentage with respect to the amount at the initial time (Example 4: cefoperazone sodium 4 g, sulbactam sodium 0.5 g, gentamicin 80 mg, citrate pH 6.75, 200 mL water, room temperature, Time 1 h): 98.66%
amount of component as percentage with respect to the amount at the initial time (Example 4: cefoperazone sodium 4 g, sulbactam sodium 0.5 g, gentamicin 80 mg, citrate pH 6.75, 200 mL water, room temperature, Time 2 h): 98.79%
amount of component as percentage with respect to the amount at the initial time (Example 4: cefoperazone sodium 4 g, sulbactam sodium 0.5 g, gentamicin 80 mg, citrate pH 6.75, 200 mL water, room temperature, Time 4 h): 101.5%
amount of component as percentage with respect to the amount at the initial time (Example 4: cefoperazone sodium 4 g, sulbactam sodium 0.5 g, gentamicin 80 mg, citrate pH 6.75, 200 mL water, room temperature, Time 6 h): 107.4%
amount of component as percentage with respect to the amount at the initial time (Example 5: freeze-dried cefoperazone sodium 4 g, sulbactam sodium 0.5 g, citrate pH 6.75, + amikacin sulfate 500 mg, 7 days 0° C., dissolved in 100 mL water, Time 0 h): 101.4%
amount of component as percentage with respect to the amount at the initial time (Example 5: freeze-dried cefoperazone sodium 4 g, sulbactam sodium 0.5 g, citrate pH 6.75, + amikacin sulfate 500 mg, 7 days 0° C., dissolved in 100 mL water, Time 1 h): 98.66%
amount of component as percentage with respect to the amount at the initial time (Example 5: freeze-dried cefoperazone sodium 4 g, sulbactam sodium 0.5 g, citrate pH 6.75, + amikacin sulfate 500 mg, 7 days 0° C., dissolved in 100 mL water, Time 2 h): 98.79%
amount of component as percentage with respect to the amount at the initial time (Example 5: freeze-dried cefoperazone sodium 4 g, sulbactam sodium 0.5 g, citrate pH 6.75, + amikacin sulfate 500 mg, 7 days 0° C., dissolved in 100 mL water, Time 4 h): 101.5%
amount of component as percentage with respect to the amount at the initial time (Example 5: freeze-dried cefoperazone sodium 4 g, sulbactam sodium 0.5 g, citrate pH 6.75, + amikacin sulfate 500 mg, 7 days 0° C., dissolved in 100 mL water, Time 6 h): 107.4%
amount of component as percentage with respect to the amount at the initial time (Example 6: freeze-dried cefoperazone sodium 4 g, sulbactam sodium 1 g, citrate pH 6.75, + etimicin sulfate 200 mg, 7 days 0° C., dissolved in 100 mL water, Time 0 h): 110.4%
amount of component as percentage with respect to the amount at the initial time (Example 6: freeze-dried cefoperazone sodium 4 g, sulbactam sodium 1 g, citrate pH 6.75, + etimicin sulfate 200 mg, 7 days 0° C., dissolved in 100 mL water, Time 1 h): 99.48%
amount of component as percentage with respect to the amount at the initial time (Example 6: freeze-dried cefoperazone sodium 4 g, sulbactam sodium 1 g, citrate pH 6.75, + etimicin sulfate 200 mg, 7 days 0° C., dissolved in 100 mL water, Time 2 h): 101.3%
amount of component as percentage with respect to the amount at the initial time (Example 6: freeze-dried cefoperazone sodium 4 g, sulbactam sodium 1 g, citrate pH 6.75, + etimicin sulfate 200 mg, 7 days 0° C., dissolved in 100 mL water, Time 4 h): 98.66%
amount of component as percentage with respect to the amount at the initial time (Example 6: freeze-dried cefoperazone sodium 4 g, sulbactam sodium 1 g, citrate pH 6.75, + etimicin sulfate 200 mg, 7 days 0° C., dissolved in 100 mL water, Time 6 h): 98.02%
amount of component as percentage with respect to the amount at the initial time (Example 6: freeze-dried cefoperazone sodium 4 g, sulbactam sodium 1 g, citrate pH 6.75, + etimicin sulfate 200 mg, 7 days 0° C., dissolved in 100 mL water, Time 8 h): 99.30%
amount of component as percentage with respect to the amount at the initial time (Example 14: freeze-dried cefoperazone sodium 4 g, sulbactam sodium 2 g, citrate pH 6.75, 7 days 0° C., in 100 mL water, 10 mL + gentamicin sulfate 16 mg, room temperature, Time 0 h): 98.42%
amount of component as percentage with respect to the amount at the initial time (Example 14: freeze-dried cefoperazone sodium 4 g, sulbactam sodium 2 g, citrate pH 6.75, 7 days 0° C., in 100 mL water, 10 mL + gentamicin sulfate 16 mg, room temperature, Time 1 h): 97.39%
amount of component as percentage with respect to the amount at the initial time (Example 14: freeze-dried cefoperazone sodium 4 g, sulbactam sodium 2 g, citrate pH 6.75, 7 days 0° C., in 100 mL water, 10 mL + gentamicin sulfate 16 mg, room temperature, Time 2 h): 97.46%
amount of component as percentage with respect to the amount at the initial time (Example 14: freeze-dried cefoperazone sodium 4 g, sulbactam sodium 2 g, citrate pH 6.75, 7 days 0° C., in 100 mL water, 10 mL + gentamicin sulfate 16 mg, room temperature, Time 4 h): 94.70%
amount of component as percentage with respect to the amount at the initial time (Example 14: freeze-dried cefoperazone sodium 4 g, sulbactam sodium 2 g, citrate pH 6.75, 7 days 0° C., in 100 mL water, 10 mL + gentamicin sulfate 16 mg, room temperature, Time 6 h): 93.02%
amount of component as percentage with respect to the amount at the initial time (Example 15: freeze-dried cefoperazone sodium 4 g, sulbactam sodium 4 g, citrate pH 6.75, 7 days 0° C., in 100 mL water, 10 mL + gentamicin sulfate 16 mg, room temperature, Time 0 h): 101.7%
amount of component as percentage with respect to the amount at the initial time (Example 15: freeze-dried cefoperazone sodium 4 g, sulbactam sodium 4 g, citrate pH 6.75, 7 days 0° C., in 100 mL water, 10 mL + gentamicin sulfate 16 mg, room temperature, Time 1 h): 96.06%
amount of component as percentage with respect to the amount at the initial time (Example 15: freeze-dried cefoperazone sodium 4 g, sulbactam sodium 4 g, citrate pH 6.75, 7 days 0° C., in 100 mL water, 10 mL + gentamicin sulfate 16 mg, room temperature, Time 2 h): 95.72%
amount of component as percentage with respect to the amount at the initial time (Example 15: freeze-dried cefoperazone sodium 4 g, sulbactam sodium 4 g, citrate pH 6.75, 7 days 0° C., in 100 mL water, 10 mL + gentamicin sulfate 16 mg, room temperature, Time 4 h): 97.32%
amount of component as percentage with respect to the amount at the initial time (Example 15: freeze-dried cefoperazone sodium 4 g, sulbactam sodium 4 g, citrate pH 6.75, 7 days 0° C., in 100 mL water, 10 mL + gentamicin sulfate 16 mg, room temperature, Time 6 h): 69.95%
amount of component as percentage with respect to the amount at the initial time (Example 16: 10 mL of the final solution (cefoperazone sodium, tazobactam sodium, etimicin sulfate, citrate) + gentamicin sulfate 16 mg, Time 0 h): 92.44%
amount of component as percentage with respect to the amount at the initial time (Example 16: 10 mL of the final solution (cefoperazone sodium, tazobactam sodium, etimicin sulfate, citrate) + gentamicin sulfate 16 mg, Time 1 h): 104.6%
amount of component as percentage with respect to the amount at the initial time (Example 16: 10 mL of the final solution (cefoperazone sodium, tazobactam sodium, etimicin sulfate, citrate) + gentamicin sulfate 16 mg, Time 2 h): 102.4%
amount of component as percentage with respect to the amount at the initial time (Example 16: 10 mL of the final solution (cefoperazone sodium, tazobactam sodium, etimicin sulfate, citrate) + gentamicin sulfate 16 mg, Time 4 h): 97.95%
amount of component as percentage with respect to the amount at the initial time (Example 16: 10 mL of the final solution (cefoperazone sodium, tazobactam sodium, etimicin sulfate, citrate) + gentamicin sulfate 16 mg, Time 6 h): 98.90%
amount of component as percentage with respect to the amount at the initial time (Example 16: 10 mL of the final solution (cefoperazone sodium, tazobactam sodium, etimicin sulfate, citrate) + gentamicin sulfate 16 mg, Time 8 h): 102.9%
amount of component as percentage with respect to the amount at the initial time (Example 16: freeze-dried cefoperazone sodium 4 g, tazobactam sodium 1 g, citrate pH 6.75, 7 days 0° C., in 100 mL water, 10 mL + etimicin sulfate 20 mg, room temperature, Time 0 h): 102.9%
amount of component as percentage with respect to the amount at the initial time (Example 16: freeze-dried cefoperazone sodium 4 g, tazobactam sodium 1 g, citrate pH 6.75, 7 days 0° C., in 100 mL water, 10 mL + etimicin sulfate 20 mg, room temperature, Time 1 h): 108.6%
amount of component as percentage with respect to the amount at the initial time (Example 16: freeze-dried cefoperazone sodium 4 g, tazobactam sodium 1 g, citrate pH 6.75, 7 days 0° C., in 100 mL water, 10 mL + etimicin sulfate 20 mg, room temperature, Time 2 h): 104.6%
amount of component as percentage with respect to the amount at the initial time (Example 16: freeze-dried cefoperazone sodium 4 g, tazobactam sodium 1 g, citrate pH 6.75, 7 days 0° C., in 100 mL water, 10 mL + etimicin sulfate 20 mg, room temperature, Time 4 h): 99.50%
amount of component as percentage with respect to the amount at the initial time (Example 16: freeze-dried cefoperazone sodium 4 g, tazobactam sodium 1 g, citrate pH 6.75, 7 days 0° C., in 100 mL water, 10 mL + etimicin sulfate 20 mg, room temperature, Time 6 h): 98.91%
amount of component as percentage with respect to the amount at the initial time (Example 16: freeze-dried cefoperazone sodium 4 g, tazobactam sodium 1 g, citrate pH 6.75, 7 days 0° C., in 100 mL water, 10 mL + etimicin sulfate 20 mg, room temperature, Time 8 h): 103.4%
amount of component as percentage with respect to the amount at the initial time (Example 17: freeze-dried cefoperazone sodium 4 g, sulbactam sodium 1 g, citrate pH 6.75, 7 days 0° C., in 100 mL water, 10 mL + amikacin sulfate 40 mg, room temperature, Time 0 h): 92.30%
amount of component as percentage with respect to the amount at the initial time (Example 17: freeze-dried cefoperazone sodium 4 g, sulbactam sodium 1 g, citrate pH 6.75, 7 days 0° C., in 100 mL water, 10 mL + amikacin sulfate 40 mg, room temperature, Time 1 h): 94.80%
amount of component as percentage with respect to the amount at the initial time (Example 17: freeze-dried cefoperazone sodium 4 g, sulbactam sodium 1 g, citrate pH 6.75, 7 days 0° C., in 100 mL water, 10 mL + amikacin sulfate 40 mg, room temperature, Time 2 h): 94.06%
amount of component as percentage with respect to the amount at the initial time (Example 17: freeze-dried cefoperazone sodium 4 g, sulbactam sodium 1 g, citrate pH 6.75, 7 days 0° C., in 100 mL water, 10 mL + amikacin sulfate 40 mg, room temperature, Time 4 h): 94.12%
amount of component as percentage with respect to the amount at the initial time (Example 17: freeze-dried cefoperazone sodium 4 g, sulbactam sodium 1 g, citrate pH 6.75, 7 days 0° C., in 100 mL water, 10 mL + amikacin sulfate 40 mg, room temperature, Time 6 h): 93.15%
amount of component as percentage with respect to the amount at the initial time (Example 17: freeze-dried cefoperazone sodium 4 g, sulbactam sodium 1 g, citrate pH 6.75, 7 days 0° C., in 100 mL water, 10 mL + amikacin sulfate 40 mg, room temperature, Time 8 h): 94.50%
SMILES: CCN1CCN(C(=O)N[C@@H](C(=O)N[C@@H]2C(=O)N3C(C(=O)O)=C(CSc4nnnn4C)CS[C@H]23)c2ccc(O)cc2)C(=O)C1=O [Cefoperazone sodium]
